The values that follow come from patent US6849658B2, “Biaromatic compounds and pharmaceutical and cosmetic compositions comprising them” (Galderma Research & Development, priority 1997, dated 2005).

A word on the melting point: it is the temperature, or range, at which the solid turns liquid. In turn, `CC1(C)CCC(C)(C)c2c(C(O)C#Cc3ccc(C(=O)O)cc3)cc(-c3ccccc3)cc21` (stereo not shown) returned a melting point of 250 °C.
`CC1(C)CCSc2c(CC#Cc3ccc(C(=O)O)c(O)c3)cccc21` [Example 6, 2-Hydroxy-4-[3-(4,4-dimethylthiochroman-8-yl)prop-1-ynyl]benzoic Acid]: the melting point lay within 190 to 191 °C.
The value for `CC1(C)CCSc2cccc(C(O)C#Cc3ccc(C(=O)O)cc3)c21` (stereo not shown) [Example 11, 4-[3-(4,4-Dimethylthiochroman-5-yl)-3-hydroxyprop-1-ynyl]benzoic Acid] was 198 °C; that for `COCOc1c(C(O)C#Cc2ccc(C(=O)O)cc2)cc(C(C)(C)C)cc1C(C)(C)C` (stereo not shown) [Example 14, 4-[3-(3,5-Di-tert-butyl-2-(methoxymethoxy)phenyl)-3-hydroxyprop-1-ynyl]benzoic Acid] was 197 °C.
The value for `CCOC(=O)c1ccc(C#CCc2cc(C(C)(C)C)cc(C(C)(C)C)c2O)cc1` [Example 16, Ethyl 4-[3-(3,5-di-tert-butyl-2-hydroxyphenyl)prop-1-ynyl]benzoate] was 113 to 115 °C.
The value for `COc1c(C(O)C#Cc2ccc(C(=O)O)cc2)cc(C(C)(C)C)cc1C(C)(C)C` (stereo not shown) [Example 18, 4-[3-(3,5-Di-tert-butyl-2-methoxyphenyl)-3-hydroxyprop-1-ynyl]benzoic Acid] was 208 to 209 °C; that for `COc1c(CC#Cc2ccc(C(=O)O)cc2)cc(C(C)(C)C)cc1C(C)(C)C` [Example 19, 4-[3-(3,5-Di-tert-butyl-2-methoxyphenyl)prop-1-ynyl]benzoic Acid] was 237 to 239 °C.
As for `COc1c(C(O)C#Cc2ccc(C(=O)O)cc2)cc(-c2ccccc2)cc1C(C)(C)C` (stereo not shown) [Example 23, 4-[3-(5-tert-Butyl-4-methoxybiphenyl-3-yl)-3-hydroxyprop-1-ynyl]benzoic Acid], the melting point fell in the range of 165 to 167 °C.
The value for `COc1c(C(C#Cc2ccc(C(=O)O)cc2)OC)cc(C(C)(C)C)cc1C(C)(C)C` (stereo not shown) [Example 25, 4-[3-(3,5-Di-tert-butyl-2-methoxyphenyl)-3-methoxyprop-1-ynyl]benzoic Acid] was 162 to 164 °C; that for `COc1c(CC#Cc2ccc(C(=O)O)cc2)cc(-c2ccccc2)cc1C(C)(C)C` [Example 31, 4-[3-(5-tert-Butyl-4-methoxybiphenyl-3-yl)prop-1-ynyl]benzoic Acid] was 229 to 231 °C.
